Each structure is given as a SMILES string. Counter-ions that a name gives are not always drawn.

Sequence of recombinant human HPK1 (Q92918 whole entry): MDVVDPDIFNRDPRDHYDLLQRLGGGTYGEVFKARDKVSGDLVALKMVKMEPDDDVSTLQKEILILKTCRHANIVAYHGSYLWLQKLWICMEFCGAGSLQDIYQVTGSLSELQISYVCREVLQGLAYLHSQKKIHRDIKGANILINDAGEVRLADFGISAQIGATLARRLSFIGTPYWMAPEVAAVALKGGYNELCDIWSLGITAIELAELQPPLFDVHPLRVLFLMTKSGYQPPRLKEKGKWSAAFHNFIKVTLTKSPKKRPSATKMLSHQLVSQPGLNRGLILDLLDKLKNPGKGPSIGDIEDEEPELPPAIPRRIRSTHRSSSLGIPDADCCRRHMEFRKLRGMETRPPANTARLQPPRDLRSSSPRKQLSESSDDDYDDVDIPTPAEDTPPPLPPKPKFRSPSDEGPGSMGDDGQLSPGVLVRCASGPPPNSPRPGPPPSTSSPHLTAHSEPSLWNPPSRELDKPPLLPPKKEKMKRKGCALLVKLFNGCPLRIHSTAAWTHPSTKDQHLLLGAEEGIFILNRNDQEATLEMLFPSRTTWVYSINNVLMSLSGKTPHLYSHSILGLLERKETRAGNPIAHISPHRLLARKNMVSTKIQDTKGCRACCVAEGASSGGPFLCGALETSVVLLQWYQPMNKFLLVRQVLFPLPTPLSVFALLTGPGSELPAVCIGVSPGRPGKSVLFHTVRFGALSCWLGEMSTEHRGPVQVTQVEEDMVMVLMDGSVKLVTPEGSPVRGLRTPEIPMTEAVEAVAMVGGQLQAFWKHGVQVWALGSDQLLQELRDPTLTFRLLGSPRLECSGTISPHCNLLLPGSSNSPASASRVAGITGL

The assay deals with recombinant human HPK1 (Homo sapiens (Human), UniProt Q92918). Put plainly: HPK1 kinase assay (Promega ADP-Glo kinase assay). Format: biochemical. Conditions: In vitro activity against HPK1, 5 ng HPK1, MBP substrate, ATP 25 μM, 30° C. 40 minutes. A digest of the protocol:
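IC50 was derived from percent inhibition across a range of compound concentrations. Recombinant human HPK1 (5 ng) phosphorylated MBP for 40 min at 30 °C in Tris buffer pH 7.5 with 20 mM MgCl2, with ATP added as a 25 µM solution and 0.5% DMSO. ADP formed was read by ADP-Glo luminescence.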
Consider `CC(=O)NC(C)c1c(F)c(C(F)F)c(-c2cn3cc(NC(=O)[C@@H]4C[C@@H]4F)nc3cn2)c2cn[nH]c12` (stereo partly drawn) [Example 53, (1S,2S)-N-(6-(7-(1-acetamidoethyl)-5-(difluoromethyl)-6-fluoro-1H-indazol-4-yl)imidazo[1,2-a]pyrazin-2-yl)-2-fluorocyclopropane-1-carboxamide], for which the IC50 is less than 100 nM.
For `Cc1c(F)c(C(C)C(F)F)c2[nH]ncc2c1-c1cn2cc(NC(=O)[C@@H]3C[C@@H]3F)nc2cn1` (stereo partly drawn) [Example 5, (1S,2S)-N-(6-(7-(1,1-difluoropropan-2-yl)-6-fluoro-5-methyl-1H-indazol-4-yl)imidazo[1,2-a]pyrazin-2-yl)-2-fluorocyclopropane-1-carboxamide] the value was less than 100 nM.
For `O=CNC(c1c(F)c(C(F)(F)F)c(-c2cn3cc(NC(=O)[C@@H]4C[C@@H]4F)nc3cn2)c2cn[nH]c12)C1CC1` (stereo partly drawn) [Example 115, (1S,2S)-N-(6-(7-(cyclopropyl(formamido)methyl)-6-fluoro-5-(trifluoromethyl)-1H-indazol-4-yl)imidazo[1,2-a]pyrazin-2-yl)-2-fluorocyclopropane-1-carboxamide] the value was less than 100 nM.
For `Cc1c(F)c(C2=CCCC2)c2[nH]ncc2c1-c1cn2cc(NC(=O)[C@@H]3C[C@@H]3F)nc2cn1` [Example 11, (1S,2S)-N-(6-(7-(cyclopent-1-en-1-yl)-6-fluoro-5-methyl-1H-indazol-4-yl)imidazo[1,2-a]pyrazin-2-yl)-2-fluorocyclopropane-1-carboxamide] the value was less than 100 nM; for `Cc1c(F)c(C(C)NC(=O)C(F)(F)F)c2[nH]ncc2c1-c1cn2cc(NC(=O)[C@@H]3C[C@@H]3F)nc2cn1` (stereo partly drawn) [Example 71, (1S,2S)-2-fluoro-N-(6-(6-fluoro-5-methyl-7-(1-(2,2,2-trifluoroacetamido)ethyl)-1H-indazol-4-yl)imidazo[1,2-a]pyrazin-2-yl)cyclopropane-1-carboxamide], less than 100 nM; for `CC(C)Nc1c(F)c(Cl)c(-c2cn3cc(NC(=O)[C@@H]4C[C@@H]4CO)nc3cn2)c2cn[nH]c12` [Example 38, (IR,2S)-N-(6-(5-chloro-6-fluoro-7-(isopropylamino)-1H-indazol-4-yl)imidazo[1,2-a]pyrazin-2-yl)-2-(hydroxymethyl)cyclopropane-1-carboxamide], less than 100 nM.
In the case of `CCC(=O)N1CC(Oc2c(F)c(Cl)c(-c3cn4cc(NC(C)=O)nc4cn3)c3cn[nH]c23)C1` [Example 149, N-(6-(5-chloro-6-fluoro-7-((1-propionylazetidin-3-yl)oxy)-1H-indazol-4-yl)imidazo[1,2-a]pyrazin-2-yl)acetamide], the half-inhibitory concentration (IC50) is 501 to 1000 nM.
The figure for `CC(C)Nc1c(F)c(Cl)c(-c2cn3cc(NC(=O)OC4CCC4)nc3cn2)c2cn[nH]c12` [Example 126, cyclobutyl (6-(5-chloro-6-fluoro-7-(isopropylamino)-1H-indazol-4-yl)imidazo[1,2-a]pyrazin-2-yl)carbamate formate] is less than 100 nM.
The figure for `CC(C)Nc1c(F)c(Cl)c(-c2cn3cc(NC(=O)[C@@H]4C[C@@H]4C(N)=O)nc3cn2)c2cn[nH]c12` [Example 39, (1R,2S)-N1-(6-(5-chloro-6-fluoro-7-(isopropylamino)-1H-indazol-4-yl)imidazo[1,2-a]pyrazin-2-yl)cyclopropane-1,2-dicarboxamide] is less than 100 nM; for `CCCC(=O)Nc1cn2cc(-c3c(Cl)c(F)c(NC(C)C)c4[nH]ncc34)ncc2n1` [Example 110, N-(6-(5-chloro-6-fluoro-7-(isopropylamino)-1H-indazol-4-yl)imidazo[1,2-a]pyrazin-2-yl)butyramide] it is less than 100 nM; for `CC(C)Nc1c(F)c(Cl)c(-c2cn3cc(NC(=O)C4COC4)nc3cn2)c2cn[nH]c12` [Example 131, N-(6-(5-chloro-6-fluoro-7-(isopropylamino)-1H-indazol-4-yl)imidazo[1,2-a]pyrazin-2-yl)oxetane-3-carboxamide] it is less than 100 nM.
Take `Cc1c(F)c(NC(C)C)c2[nH]ncc2c1-c1cn2cc(NC(=O)[C@H]3C[C@@H]3F)nc2cn1` [Example 35, (1R,2S)-2-fluoro-N-(6-(6-fluoro-7-(isopropylamino)-5-methyl-1H-indazol-4-yl)imidazo[1,2-a]pyrazin-2-yl)cyclopropane-1-carboxamide]: the IC50 was less than 100 nM.
The figure for `CC(=O)NC(C)c1c(F)c(C)c(-c2cn3cc(NC(=O)[C@@H]4C[C@@H]4F)nc3cn2)c2cn[nH]c12` (stereo partly drawn) [Example 70, (1S,2S)-N-(6-(7-(1-acetamidoethyl)-6-fluoro-5-methyl-1H-indazol-4-yl)imidazo[1,2-a]pyrazin-2-yl)-2-fluorocyclopropane-1-carboxamide] is less than 100 nM.
As for `CC(C)Nc1c(F)c(Cl)c(-c2cn3cc(NC(=O)CN4CCOCC4)nc3cn2)c2cn[nH]c12` [Example 90, N-(6-(5-chloro-6-fluoro-7-(isopropylamino)-1H-indazol-4-yl)imidazo[1,2-a]pyrazin-2-yl)-2-morpholinoacetamide], the IC50 is less than 100 nM.
The figure for `CC(=O)Nc1cn2cc(-c3c(Cl)c(F)c([C@H](C)NC(=O)C(F)(F)F)c4[nH]ncc34)ncc2n1` [Example 138, (S)-N-(1-(4-(2-acetamidoimidazo[1,2-a]pyrazin-6-yl)-5-chloro-6-fluoro-1H-indazol-7-yl)ethyl)-2,2,2-trifluoroacetamide] is less than 100 nM.
The figure for `Cc1c(F)c(C(NC(=O)C(F)(F)F)C2CC2)c2[nH]ncc2c1-c1cn2cc(NC(=O)[C@@H]3C[C@@H]3F)nc2cn1` (stereo partly drawn) [Example 107, (1S,2S)-N-(6-(7-(cyclopropyl(2,2,2-trifluoroacetamido)methyl)-6-fluoro-5-methyl-1H-indazol-4-yl)imidazo[1,2-a]pyrazin-2-yl)-2-fluorocyclopropane-1-carboxamide] is less than 100 nM; for `C[C@H](N[S@@+]([O-])C(C)(C)C)c1c(F)c(Cl)c(-c2cn3cc(NC(=O)[C@@H]4C[C@@H]4F)nc3cn2)c2cn[nH]c12` [Example 132, (1S,2S)-N-(6-(7-((S)-1-(((S)-tert-butylsulfinyl)amino)ethyl)-5-chloro-6-fluoro-1H-indazol-4-yl)imidazo[1,2-a]pyrazin-2-yl)-2-fluorocyclopropane-1-carboxamide] it is less than 100 nM.
For `CN(C)c1c(F)c(C(F)(F)F)c(-c2cn3cc(NC(=O)[C@@H]4C[C@H]4F)nc3cn2)c2cn[nH]c12` [Example 30, (1S,2R)-N-(6-(7-(dimethylamino)-6-fluoro-5-(trifluoromethyl)-1H-indazol-4-yl)imidazo[1,2-a]pyrazin-2-yl)-2-fluorocyclopropane-1-carboxamide], the half-maximal inhibitory concentration (IC50) is less than 100 nM.
The figure for `Cc1c(F)c(C2CCCC2O)c2[nH]ncc2c1-c1cn2cc(NC(=O)[C@@H]3C[C@@H]3F)nc2cn1` (stereo partly drawn) [Example 9, (1S,2S)-2-fluoro-N-(6-(6-fluoro-7-(2-hydroxycyclopentyl)-5-methyl-1H-indazol-4-yl)imidazo[1,2-a]pyrazin-2-yl)cyclopropane-1-carboxamide] is less than 100 nM; for `CC(C)Nc1c(F)c(Cl)c(-c2cn3cc(NC(=O)CCO)nc3cn2)c2cn[nH]c12` [Example 130, N-(6-(5-chloro-6-fluoro-7-(isopropylamino)-1H-indazol-4-yl)imidazo[1,2-a]pyrazin-2-yl)-3-hydroxypropanamide] it is less than 100 nM.
The figure for `C[C@@H](NC(=O)C(F)(F)F)c1c(F)c(Cl)c(-c2cn3cc(NC(=O)[C@@H]4C[C@@H]4F)nc3cn2)c2cn[nH]c12` [Example 137, (1S,2S)-N-(6-(5-chloro-6-fluoro-7-((R)-1-(2,2,2-trifluoroacetamido)ethyl)-1H-indazol-4-yl)imidazo[1,2-a]pyrazin-2-yl)-2-fluorocyclopropane-1-carboxamide] is less than 100 nM.
`CC(C)Nc1c(F)c(Cl)c(-c2cn3cc(NC(=O)Cc4cocn4)nc3cn2)c2cn[nH]c12` [Example 144, N-(6-(5-chloro-6-fluoro-7-(isopropylamino)-1H-indazol-4-yl)imidazo[1,2-a]pyrazin-2-yl)-2-(oxazol-4-yl)acetamide]: the IC50 was less than 100 nM.
The figure for `CC(C)Nc1c(F)c(Cl)c(-c2cn3cc(NC(=O)CN)nc3cn2)c2cn[nH]c12` [Example 80, 2-amino-N-(6-(5-chloro-6-fluoro-7-(isopropylamino)-1H-indazol-4-yl)imidazo[1,2-a]pyrazin-2-yl)acetamide] is less than 100 nM.
The figure for `CC(C)Nc1c(F)c(Cl)c(-c2cn3cc(NC(=O)C(C)(C)C)nc3cn2)c2cn[nH]c12` [Example 82, N-(6-(5-chloro-6-fluoro-7-(isopropylamino)-1H-indazol-4-yl)imidazo[1,2-a]pyrazin-2-yl)pivalamide] is 101 to 500 nM; for `CC(=O)Nc1cn2cc(-c3c(C(F)F)c(F)c(NC(C)C)c4[nH]ncc34)ncc2n1` [Example 153, N-(6-(5-(difluoromethyl)-6-fluoro-7-(isopropylamino)-1H-indazol-4-yl)imidazo[1,2-a]pyrazin-2-yl)acetamide] it is less than 100 nM; for `Cc1c(F)c(C(O)C2CC2)c2[nH]ncc2c1-c1cn2cc(NC(=O)[C@@H]3C[C@@H]3F)nc2cn1` (stereo partly drawn) [Example 1, (1S,2S)-N-(6-(7-(cyclopropyl(hydroxy)methyl)-6-fluoro-5-methyl-1H-indazol-4-yl)imidazo[1,2-a]pyrazin-2-yl)-2-fluorocyclopropane-1-carboxamide] it is less than 100 nM.
The figure for `COc1c(F)c(NC(C)C)c2[nH]ncc2c1-c1cn2cc(NC(=O)[C@@H]3C[C@@H]3C#N)nc2cn1` [Example 164, (1R,2S)-2-cyano-N-(6-(6-fluoro-7-(isopropylamino)-5-methoxy-1H-indazol-4-yl)imidazo[1,2-a]pyrazin-2-yl)cyclopropane-1-carboxamide] is less than 100 nM.
